Assay results reported in US5102912A, “Hydroxyoctadecadienic acid for the treatment of estrogen-dependent disease” (Kanoldt Arzneimittel GmbH, priority 1990, dated 1992).

Assays:
aromatase [1] = molecular target: T1, aromatase (Homo sapiens, UniProt P11511); assay: Inhibition of aromatase activity, placenta microsomes, substrate androstenedione 100 nM (Example 4); format: biochemical
T1 construct: suspension of human placenta microsomes as a source of aromatase enzyme; from tissue; host or cells: human placenta microsomes
T1 sequence (P11511 1-503): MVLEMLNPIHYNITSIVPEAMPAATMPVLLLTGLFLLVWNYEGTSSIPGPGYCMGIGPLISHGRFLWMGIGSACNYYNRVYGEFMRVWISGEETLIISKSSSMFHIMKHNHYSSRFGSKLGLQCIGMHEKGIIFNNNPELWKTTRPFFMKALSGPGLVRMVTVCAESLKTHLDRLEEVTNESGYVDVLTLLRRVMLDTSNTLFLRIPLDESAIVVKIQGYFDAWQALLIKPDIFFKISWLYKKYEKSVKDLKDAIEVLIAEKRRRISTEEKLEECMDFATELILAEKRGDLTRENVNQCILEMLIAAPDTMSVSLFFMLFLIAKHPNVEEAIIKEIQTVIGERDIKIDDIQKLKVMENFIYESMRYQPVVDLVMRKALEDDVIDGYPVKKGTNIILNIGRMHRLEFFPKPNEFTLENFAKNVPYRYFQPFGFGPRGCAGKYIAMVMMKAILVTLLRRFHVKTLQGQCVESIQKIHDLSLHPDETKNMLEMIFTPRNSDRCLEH

[2] = Storage stability of the prepared acid; format: physicochemical
[3] = Effect in the treatment of estrogen-dependent diseases, keto form compared with hydroxy compound
aromatase [4] = molecular target: T1, aromatase; assay: Inhibition of aromatase activity, placenta microsomes, substrate androstenedione 10 nM (Example 3); format: biochemical; conditions: 10 min
Description: Inhibitor tests were carried out with a suspension of human placenta microsomes as a source of aromatase enzyme. The substrate used in these competitive inhibition tests was androstenedione.
Experimental conditions for enzyme inhibition
enzyme source: placenta microsomes
substrate: androstenedione (10 nM)
tracer: ^3 H-androstenedione
Co-substrate: NADPH-regenerating system
The substrate, ^3 H-androstenedione was incubated in the presence of aromatase enzyme with and without the acid inhibitor. The aromatization of androstenedione to estradiol was measured by the release of ^3 H2 O in the process of aromatization. Aromatase activity in the presence of 9-hydroxy-10(trans)-12(cis)-octadecadienoic acid was compared with that of a control group without this inhibiting additive. Aromatase activity is shown as percent of reaction in table 2.

SMILES	activity at 1 µg/mL (aromatase [1]; 10 min, inhibitor 1 mg/l, androstenedione 100 nM, 10 minutes, average value ± S.D. (n = 3), without inhibitor 100 ± 9.1, read-out: Aromatase activity (% reaction) with inhibitor) [%]	activity at 10 µg/mL (aromatase [1]; 10 min, inhibitor 10 mg/l, androstenedione 100 nM, 10 minutes, average value ± S.D. (n = 3), without inhibitor 100 ± 8.1, read-out: Aromatase activity (% reaction) with inhibitor) [%]	activity at 100 µg/mL (aromatase [1]; 10 min, inhibitor 100 mg/l, androstenedione 100 nM, 10 minutes, average value ± S.D. (n = 3), without inhibitor 100 ± 5.5, read-out: Aromatase activity (% reaction) with inhibitor) [%]	inhibition of aromatase (in words) (aromatase [1]; Example 4, table 4)	aromatase inhibiting effect relative to the acid in hydroxy form (aromatase [1]; from tables 2 and 4, displacement with respect to the concentration of the inhibitor)	stability compared with the product of Example 1 [2]	effect by comparison with the hydroxy compound [3] [fold]	activity at 1 µg/mL (aromatase [4]; inhibitor 1 mg/l, without inhibitor 100 ± 9.1, read-out: Aromatase Activity (% reaction) with inhibitor) [%]	activity at 10 µg/mL (aromatase [4]; inhibitor 10 mg/l, without inhibitor 100 ± 8.1, read-out: Aromatase Activity (% reaction) with inhibitor) [%]	activity at 100 µg/mL (aromatase [4]; inhibitor 100 mg/l, without inhibitor 100 ± 5.5, read-out: Aromatase Activity (% reaction) with inhibitor) [%]	storage stability ([2]; even at minus 20° C)
CCCCC/C=C\C=C\C(=O)CCCCCCCC(=O)O [9-oxo-10(trans)-12(cis)-octadecadienic acid]	58.3 ± 3.6	19.3 ± 3.4	6.2 ± 2.9	stronger aromatase inhibiting effect	about 10 times stronger	equally unstable as the product of Example 1	10				
CCCCC/C=C\C=C\C(O)CCCCCCCC(=O)O (stereo not drawn) [9-hydroxy-10(trans)-12(cis)-octadecadienic acid]								94.4 ± 1.2	53.8 ± 3.8	16.2 ± 3.2	only storable to a limited extent even at minus 20 °C
